Measured values: publication PMC12426595 (Cancer Research Communications, 2025)
One block for each compound: values may come before it.

Experiments:
[1] = target: T1, BTK-NanoLuc Fusion Vector in HEK293 cells (Homo sapiens, UniProt Q06187); test: NanoBRET intracellular binding assay, BTK; settings: read-out: EC50 BTK (NanoBRET), positive control
T1 construct: host or cells: HEK293
Method: Intracellular binding was determined with a NanoBRET assay (Reaction Biology). […] The protein kinase inhibitors dasatinib and […] were used as positive controls.

[2] = In vivo DDI: gilteritinib pharmacokinetics; set-up: species or system mouse; settings: plasma, po, 30 mg/kg, gilteritinib 30 mg/kg oral
[3] = In vivo DDI: pravastatin pharmacokinetics; settings: male, C57BL/6, mouse, plasma, po, 20 mg/kg, C57BL/6 male, pravastatin 20 mg/kg oral
[4] = system: P-gp; settings: cited from earlier work
[5] = female, C57BL/6, mouse, C57BL/6 female, perpetrator TL-895 3 mg/kg
[6] = female, C57BL/6, mouse, C57BL/6 female, perpetrator vehicle
[7] = female, NSG (NOD/SCID gamma), mouse, NSG female, perpetrator TL-895 3 mg/kg
[8] = female, NSG (NOD/SCID gamma), mouse, NSG female, perpetrator vehicle
[9] = male, C57BL/6, mouse, C57BL/6 male, perpetrator TL-895 3 mg/kg
[10] = male, C57BL/6, mouse, C57BL/6 male, perpetrator vehicle
[11] = male, NSG (NOD/SCID gamma), mouse, NSG male, perpetrator TL-895 3 mg/kg
[12] = male, NSG (NOD/SCID gamma), mouse, NSG male, perpetrator vehicle

T1 sequence (Q06187 whole entry, the tested form may be a part): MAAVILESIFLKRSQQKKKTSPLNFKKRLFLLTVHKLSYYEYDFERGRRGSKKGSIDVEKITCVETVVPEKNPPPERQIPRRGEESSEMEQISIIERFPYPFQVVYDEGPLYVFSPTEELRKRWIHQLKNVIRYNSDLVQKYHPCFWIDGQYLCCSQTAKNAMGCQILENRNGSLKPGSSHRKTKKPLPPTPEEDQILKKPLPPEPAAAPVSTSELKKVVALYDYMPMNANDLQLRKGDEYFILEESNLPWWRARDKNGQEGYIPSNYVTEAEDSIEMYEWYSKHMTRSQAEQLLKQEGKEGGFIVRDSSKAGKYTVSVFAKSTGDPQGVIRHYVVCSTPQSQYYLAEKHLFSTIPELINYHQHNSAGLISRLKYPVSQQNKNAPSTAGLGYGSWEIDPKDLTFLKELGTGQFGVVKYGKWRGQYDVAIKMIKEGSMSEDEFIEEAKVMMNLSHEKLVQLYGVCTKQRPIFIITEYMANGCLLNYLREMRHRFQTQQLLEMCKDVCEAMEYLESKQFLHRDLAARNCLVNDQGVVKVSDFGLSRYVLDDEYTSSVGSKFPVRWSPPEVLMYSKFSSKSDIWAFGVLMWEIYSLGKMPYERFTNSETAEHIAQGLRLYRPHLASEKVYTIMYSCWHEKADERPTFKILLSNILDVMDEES

EC50 [1]: 30.1 nM
Structure (SMILES): CNC(=O)c1ccccc1Nc1nc(Nc2ccc(N3CCNCC3)cc2)ncc1Cl [CTx-0294885]

AUC [2, 5]: 6440 ng·h/mL
Cmax [2, 5]: 688 ± 97 ng/mL
AUC [2, 6]: 6980 ng·h/mL
Cmax [2, 6]: 787 ± 102 ng/mL
AUC [2, 7]: 4830 ng·h/mL
Cmax [2, 7]: 507 ± 28 ng/mL
AUC [2, 8]: 4930 ng·h/mL
Cmax [2, 8]: 593 ± 87 ng/mL
AUC [2, 9]: 5130 ng·h/mL
Cmax [2, 9]: 502 ± 113 ng/mL
AUC [2, 10]: 4960 ng·h/mL
Cmax [2, 10]: 469 ± 51 ng/mL
AUC [2, 11]: 4370 ng·h/mL
Cmax [2, 11]: 421 ± 20 ng/mL
AUC [2, 12]: 4410 ng·h/mL
Cmax [2, 12]: 440 ± 86 ng/mL
Structure (SMILES): CCc1nc(C(N)=O)c(Nc2ccc(N3CCC(N4CCN(C)CC4)CC3)c(OC)c2)nc1NC1CCOCC1 [Gilteritinib, gilteritinib]

AUC ([3]; perpetrator TL-895 10 mg/kg): 49.8 ± 7.6 ng·h/mL
Cmax ([3]; perpetrator TL-895 10 mg/kg): 182 ± 31 ng/mL
AUC ([3]; perpetrator rifampin 20 mg/kg): 333 ± 64 ng·h/mL
Cmax ([3]; perpetrator rifampin 20 mg/kg): 994 ± 148 ng/mL
AUC ([3]; perpetrator vehicle): 102 ± 42 ng·h/mL
Cmax ([3]; perpetrator vehicle): 406 ± 186 ng/mL
Structure (SMILES): CC[C@H](C)C(=O)O[C@H]1C[C@H](O)C=C2C=C[C@H](C)[C@H](CC[C@@H](O)C[C@@H](O)CC(=O)O)[C@H]21 [Pravastatin, pravastatin]

Structure (SMILES): C=CC(=O)N1CCC[C@@H](n2nc(-c3ccc(Oc4ccccc4)cc3)c3c(N)ncnc32)C1 [ibrutinib]
effect of P-gp deficiency on overall exposure [4]: only minimal effects
